Experimental data as given in US20160375006A1, “USES OF PARALOG-SELECTIVE INHIBITORS OF GSK3 KINASES” (priority 2012, published 2016).

Legend:
[1] = biological target: FGFR4(V550L) (Homo sapiens, UniProt P22455, V550L)
Experimental: (§1) This was completed utilizing one of two assays depending on the kinase being examined.
(§2) A solution of IMAP binding reagent (IMAP Screening Express kit; Molecular Devices) (60 μL) was added to each well and incubated for 30 minutes.
(§3) A solution of termination buffer (QuickScout Screening assist MSA; Carna Biosciences) (60 μL) was added to each well. The entire reaction mixture was then applied to a LabChip3000 system (Caliper Life Science) and the product and substrate peptide peaks were separated and quantified.
(§4) The assay utilized was identical to that of the single point inhibitory activity determination (MSA) but run in dose response. […] A solution of termination buffer (QuickScout Screening assist MSA; Carna Biosciences) (60 μL) was added to each well. The entire reaction mixture was then applied to a LabChip3000 system (Caliper Life Science) and the product and substrate peptide peaks were separated and quantified.

[2] = biological target: TYRO3 (Homo sapiens, UniProt Q06418)
Experimental: as §1, §2, §3

[3] = biological target: EPHB2 (Homo sapiens, UniProt P29323)
Experimental: as §1, §2, §3, §4

[4] = biological target: LATS2 (Homo sapiens, UniProt Q9NRM7)
Experimental: as §1, §2, §3, §4

[5] = biological target: Haspin (Homo sapiens, UniProt Q8TF76)
Experimental: as §1, §2, §3, §4

[6] = biological target: PKCι (Homo sapiens, UniProt P41743)
Text: as §1
(§5) The assay utilized was identical to that of the single point inhibitory activity determination (MSA) but run in dose response.

[7] = biological target: DCAMKL2 (Homo sapiens, UniProt Q8N568)
Experimental: as §1, §2, §3, §4

[8] = biological target: p38δ (Homo sapiens, UniProt O15264)
Chain of p38δ (O15264 whole entry): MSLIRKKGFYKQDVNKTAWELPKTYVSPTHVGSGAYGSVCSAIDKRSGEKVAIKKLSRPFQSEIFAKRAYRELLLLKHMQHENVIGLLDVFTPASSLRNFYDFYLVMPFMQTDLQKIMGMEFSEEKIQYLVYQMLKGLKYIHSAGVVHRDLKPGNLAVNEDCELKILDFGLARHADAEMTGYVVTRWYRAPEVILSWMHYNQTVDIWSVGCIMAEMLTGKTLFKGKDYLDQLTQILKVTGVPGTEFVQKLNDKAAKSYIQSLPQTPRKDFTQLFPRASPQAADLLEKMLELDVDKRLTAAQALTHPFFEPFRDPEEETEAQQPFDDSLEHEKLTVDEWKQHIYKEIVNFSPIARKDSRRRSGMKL
Experimental: as §1, §2, §3, §4

[9] = biological target: CDC2/CycB1 (Homo sapiens, UniProt P06493)
Experimental: as §1, §2, §3, §4

[10] = biological target: CK2α1/β (Homo sapiens, UniProt P68400)
Experimental: as §1, §2, §3, §4

[11] = biological target: DYRK2 (Homo sapiens, UniProt Q92630)
Experimental: as §1, §2, §3, §4

[12] = biological target: EPHB4 (Homo sapiens, UniProt P54760)
Experimental: as §1, §2, §3, §4

[13] = biological target: SLK (Homo sapiens, UniProt Q9H2G2)
Experimental: as §1, §2, §3, §4

[14] = biological target: DAPK1 (Homo sapiens, UniProt P53355)
Experimental: as §1, §2, §3, §4

[15] = biological target: RET(Y791F) (Homo sapiens, UniProt P07949, Y791F)
Chain of RET(Y791F) (P07949 29-1114 Y791F): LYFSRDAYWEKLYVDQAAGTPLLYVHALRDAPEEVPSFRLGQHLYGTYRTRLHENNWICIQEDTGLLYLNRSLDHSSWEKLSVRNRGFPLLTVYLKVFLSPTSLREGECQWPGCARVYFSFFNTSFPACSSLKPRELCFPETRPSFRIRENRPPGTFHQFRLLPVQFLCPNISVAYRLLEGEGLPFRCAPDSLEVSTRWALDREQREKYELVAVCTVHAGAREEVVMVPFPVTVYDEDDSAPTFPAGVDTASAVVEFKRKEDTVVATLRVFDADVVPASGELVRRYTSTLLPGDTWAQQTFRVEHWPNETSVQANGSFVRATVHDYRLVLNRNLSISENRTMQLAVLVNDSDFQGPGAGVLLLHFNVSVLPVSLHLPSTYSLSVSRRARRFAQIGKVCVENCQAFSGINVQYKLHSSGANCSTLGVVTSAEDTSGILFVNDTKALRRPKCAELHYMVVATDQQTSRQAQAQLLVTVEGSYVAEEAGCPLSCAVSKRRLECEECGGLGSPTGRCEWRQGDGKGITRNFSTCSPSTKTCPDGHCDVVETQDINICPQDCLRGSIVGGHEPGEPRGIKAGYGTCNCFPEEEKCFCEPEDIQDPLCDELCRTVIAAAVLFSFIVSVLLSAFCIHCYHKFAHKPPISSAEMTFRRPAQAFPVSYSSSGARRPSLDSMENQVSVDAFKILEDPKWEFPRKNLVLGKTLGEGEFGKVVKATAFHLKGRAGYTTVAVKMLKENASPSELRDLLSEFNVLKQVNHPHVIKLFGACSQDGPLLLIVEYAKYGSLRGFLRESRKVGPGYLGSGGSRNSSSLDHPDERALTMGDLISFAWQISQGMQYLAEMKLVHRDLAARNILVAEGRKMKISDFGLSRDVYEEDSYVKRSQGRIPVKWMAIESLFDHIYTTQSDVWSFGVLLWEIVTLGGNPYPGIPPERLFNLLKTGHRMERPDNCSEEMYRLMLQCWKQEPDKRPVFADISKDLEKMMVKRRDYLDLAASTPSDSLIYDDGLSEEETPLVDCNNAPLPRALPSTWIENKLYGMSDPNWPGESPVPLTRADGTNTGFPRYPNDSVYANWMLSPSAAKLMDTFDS
Experimental: as §1, §2, §3, §4

[16] = biological target: MER (Homo sapiens, UniProt Q12866)
Experimental: as §1, §2, §3, §4

[17] = biological target: CaMK4 (Homo sapiens, UniProt Q16566)
Experimental: as §1, §2, §3, §4

[18] = biological target: BRAF_Cascade (Homo sapiens, UniProt P15056)
Experimental: as §1, §2, §3, §4

[19] = biological target: CHK1 (Homo sapiens, UniProt O14757)
Experimental: as §1, §2, §3, §4

[20] = biological target: TSSK1 (Homo sapiens, UniProt Q9BXA7)
Experimental: as §1, §2, §3, §4

[21] = biological target: KIT(V654A) (Homo sapiens, UniProt P10721, V654A)
Experimental: as §1, §2, §3, §4

[22] = biological target: TAK1-TAB1_Cascade (Homo sapiens, UniProt O43318)
Experimental: as §1, §2, §3, §4

[23] = biological target: PHKG1 (Homo sapiens, UniProt Q16816)
Experimental: as §1, §2, §3, §4

[24] = biological target: CK1γ1 (Homo sapiens, UniProt Q9HCP0)
Experimental: as §1, §2, §3, §4

[25] = biological target: AXL (Homo sapiens, UniProt P30530)
Chain of AXL (P30530 26-894): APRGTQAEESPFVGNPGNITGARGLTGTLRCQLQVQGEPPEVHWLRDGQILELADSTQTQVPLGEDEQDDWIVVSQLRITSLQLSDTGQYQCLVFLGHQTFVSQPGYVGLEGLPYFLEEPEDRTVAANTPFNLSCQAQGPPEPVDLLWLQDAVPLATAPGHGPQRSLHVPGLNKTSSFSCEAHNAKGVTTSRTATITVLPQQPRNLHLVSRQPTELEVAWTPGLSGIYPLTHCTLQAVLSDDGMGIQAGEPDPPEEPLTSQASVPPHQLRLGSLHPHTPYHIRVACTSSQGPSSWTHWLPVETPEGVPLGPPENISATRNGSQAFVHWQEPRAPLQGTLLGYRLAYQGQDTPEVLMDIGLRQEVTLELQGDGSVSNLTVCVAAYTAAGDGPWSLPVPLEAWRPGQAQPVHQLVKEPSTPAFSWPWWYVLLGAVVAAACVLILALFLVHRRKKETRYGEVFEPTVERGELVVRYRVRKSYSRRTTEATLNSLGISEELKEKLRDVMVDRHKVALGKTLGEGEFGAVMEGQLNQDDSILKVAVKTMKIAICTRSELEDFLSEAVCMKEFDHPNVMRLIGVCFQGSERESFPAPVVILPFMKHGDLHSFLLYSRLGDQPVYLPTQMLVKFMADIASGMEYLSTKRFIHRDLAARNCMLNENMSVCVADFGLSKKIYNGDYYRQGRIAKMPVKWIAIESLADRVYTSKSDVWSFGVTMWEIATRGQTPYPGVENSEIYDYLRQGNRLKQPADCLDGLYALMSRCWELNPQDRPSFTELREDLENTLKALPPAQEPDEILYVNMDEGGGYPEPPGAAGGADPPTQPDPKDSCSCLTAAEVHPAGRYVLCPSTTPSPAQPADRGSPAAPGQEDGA
Experimental: as §1, §2, §3

[26] = biological target: HER2 (Homo sapiens, UniProt P04626)
Experimental: as §1, §2, §3, §4

[27] = biological target: TYK2 (Homo sapiens, UniProt P29597)
Experimental: as §2, §3, §4

[28] = biological target: IRAK4 (Homo sapiens, UniProt Q9NWZ3)
Experimental: as §1, §2, §3, §4

[29] = biological target: TNK1 (Homo sapiens, UniProt Q13470)
Text: as §1, §5

[30] = biological target: LYNb (Homo sapiens, UniProt P07948)
Experimental: as §1, §2, §3, §4

[31] = biological target: EPHA3 (Homo sapiens, UniProt P29320)
Experimental: as §1, §2, §3, §4

[32] = biological target: ALK (Homo sapiens, UniProt Q9UM73)
Chain of ALK (Q9UM73 19-1620): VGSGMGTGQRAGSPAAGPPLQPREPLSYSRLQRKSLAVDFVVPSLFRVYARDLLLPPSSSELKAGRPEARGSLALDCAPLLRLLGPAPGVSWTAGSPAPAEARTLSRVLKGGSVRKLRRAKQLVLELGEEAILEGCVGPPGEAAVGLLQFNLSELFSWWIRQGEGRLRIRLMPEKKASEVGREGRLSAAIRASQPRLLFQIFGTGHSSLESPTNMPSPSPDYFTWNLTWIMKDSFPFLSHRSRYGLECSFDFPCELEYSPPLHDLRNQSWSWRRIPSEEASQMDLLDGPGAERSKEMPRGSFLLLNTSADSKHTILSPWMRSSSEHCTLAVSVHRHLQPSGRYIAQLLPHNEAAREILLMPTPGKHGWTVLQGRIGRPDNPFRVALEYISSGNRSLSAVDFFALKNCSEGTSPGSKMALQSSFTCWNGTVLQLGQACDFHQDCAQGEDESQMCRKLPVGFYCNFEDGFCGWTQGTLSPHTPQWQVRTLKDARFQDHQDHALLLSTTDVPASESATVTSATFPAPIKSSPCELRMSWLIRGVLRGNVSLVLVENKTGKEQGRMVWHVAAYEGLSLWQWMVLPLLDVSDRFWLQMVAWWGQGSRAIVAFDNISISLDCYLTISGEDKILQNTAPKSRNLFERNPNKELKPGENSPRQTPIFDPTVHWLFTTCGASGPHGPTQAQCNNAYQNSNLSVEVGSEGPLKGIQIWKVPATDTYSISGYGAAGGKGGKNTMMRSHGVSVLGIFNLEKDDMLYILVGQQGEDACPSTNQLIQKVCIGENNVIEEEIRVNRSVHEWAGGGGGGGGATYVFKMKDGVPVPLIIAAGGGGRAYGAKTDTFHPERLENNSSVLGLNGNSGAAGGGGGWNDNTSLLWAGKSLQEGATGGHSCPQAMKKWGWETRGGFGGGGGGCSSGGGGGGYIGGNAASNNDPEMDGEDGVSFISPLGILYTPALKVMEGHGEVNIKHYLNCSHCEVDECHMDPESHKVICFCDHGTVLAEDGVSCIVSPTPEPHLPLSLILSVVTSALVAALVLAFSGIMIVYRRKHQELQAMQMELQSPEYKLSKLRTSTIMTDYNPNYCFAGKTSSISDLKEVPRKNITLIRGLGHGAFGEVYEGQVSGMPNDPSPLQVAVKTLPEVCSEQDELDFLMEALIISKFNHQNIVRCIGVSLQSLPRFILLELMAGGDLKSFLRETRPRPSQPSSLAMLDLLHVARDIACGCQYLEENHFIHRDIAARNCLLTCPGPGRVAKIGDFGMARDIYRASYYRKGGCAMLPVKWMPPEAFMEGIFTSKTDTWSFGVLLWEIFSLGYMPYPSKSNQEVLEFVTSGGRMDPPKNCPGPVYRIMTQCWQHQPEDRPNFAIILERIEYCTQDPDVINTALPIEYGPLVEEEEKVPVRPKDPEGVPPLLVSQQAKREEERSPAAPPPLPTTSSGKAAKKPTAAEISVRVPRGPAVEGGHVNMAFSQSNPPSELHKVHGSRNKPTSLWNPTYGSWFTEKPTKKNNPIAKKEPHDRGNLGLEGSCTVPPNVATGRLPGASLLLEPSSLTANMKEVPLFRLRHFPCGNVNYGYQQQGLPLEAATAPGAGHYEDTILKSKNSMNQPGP
Experimental: as §1, §2, §3

[33] = biological target: T1, PLK1 (Homo sapiens, UniProt P53350); experiment: Carna kinase panel; format: biochemical
T1 construct: purchased Carna Biosciences
T1 sequence (P53350 whole entry): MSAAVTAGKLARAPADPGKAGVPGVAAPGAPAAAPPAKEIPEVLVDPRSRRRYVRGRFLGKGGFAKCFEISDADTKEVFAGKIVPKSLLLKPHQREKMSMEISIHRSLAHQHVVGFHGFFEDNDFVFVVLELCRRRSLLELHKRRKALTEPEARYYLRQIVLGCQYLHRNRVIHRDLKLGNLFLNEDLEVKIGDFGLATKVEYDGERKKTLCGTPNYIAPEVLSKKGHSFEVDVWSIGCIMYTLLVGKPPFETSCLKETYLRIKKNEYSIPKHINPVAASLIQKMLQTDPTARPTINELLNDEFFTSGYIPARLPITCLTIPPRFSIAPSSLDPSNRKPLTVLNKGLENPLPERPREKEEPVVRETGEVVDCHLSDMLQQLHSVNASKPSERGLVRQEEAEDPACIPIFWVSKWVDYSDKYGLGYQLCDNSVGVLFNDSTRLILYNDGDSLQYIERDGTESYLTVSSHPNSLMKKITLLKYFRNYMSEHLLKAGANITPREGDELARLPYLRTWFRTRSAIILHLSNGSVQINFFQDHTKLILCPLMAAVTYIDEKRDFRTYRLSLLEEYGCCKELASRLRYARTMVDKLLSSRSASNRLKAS
Experimental: as §1, §2, §3

[34] = biological target: PDHK4 (Homo sapiens, UniProt Q16654)
Chain of PDHK4 (Q16654 whole entry): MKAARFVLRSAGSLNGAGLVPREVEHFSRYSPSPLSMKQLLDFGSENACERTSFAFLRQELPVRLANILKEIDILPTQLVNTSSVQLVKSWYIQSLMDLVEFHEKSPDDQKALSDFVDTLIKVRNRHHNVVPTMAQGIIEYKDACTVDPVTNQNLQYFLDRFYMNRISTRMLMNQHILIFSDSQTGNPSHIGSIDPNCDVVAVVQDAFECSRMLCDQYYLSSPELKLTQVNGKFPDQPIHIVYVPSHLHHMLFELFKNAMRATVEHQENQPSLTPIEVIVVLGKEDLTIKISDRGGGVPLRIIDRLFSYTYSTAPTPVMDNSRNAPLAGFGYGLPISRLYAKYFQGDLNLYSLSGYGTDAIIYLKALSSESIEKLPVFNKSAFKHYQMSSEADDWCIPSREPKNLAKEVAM
Experimental: as §1, §2, §3, §4

[35] = biological target: FES (Homo sapiens, UniProt P07332)
Experimental: as §1, §2, §3, §4

[36] = biological target: SYK (Homo sapiens, UniProt P43405)
Experimental: as §1, §2, §3, §4

[37] = biological target: NEK2 (Homo sapiens, UniProt P51955)
Experimental: as §1, §2, §3, §4

[38] = biological target: HIPK1 (Homo sapiens, UniProt Q86Z02)
Experimental: as §1, §2, §3

[39] = biological target: IKKε (Homo sapiens, UniProt Q14164)
Experimental: as §1, §2, §3, §4

[40] = biological target: T2, Erk5 (Homo sapiens, UniProt Q13164); experiment: Carna kinase panel; format: biochemical
T2 construct: purchased Carna Biosciences
Experimental: as §1, §2, §3

[41] = biological target: EPHA1 (Homo sapiens, UniProt P21709)
Experimental: as §2, §3, §4

CC[C@@]1(c2ccccc2)C2=C(CC(C)(C)CC2=O)Nc2n[nH]cc21 [BRD0705]
% Inhibition at 10 μM [1]: −0.4%
% Inhibition at 10 μM [2]: 3.8%
% Inhibition at 10 μM [3]: 6.5%
% Inhibition at 10 μM [4]: −11.9%
% Inhibition at 10 μM [5]: −5.1%
% Inhibition at 10 μM [6]: −4.3%
% Inhibition at 10 μM [7]: −0.5%
% Inhibition at 10 μM [8]: 2.4%
% Inhibition at 10 μM [9]: 17.2%
% Inhibition at 10 μM [10]: −6.0%
% Inhibition at 10 μM [11]: −3.0%
% Inhibition at 10 μM [12]: 14.7%
% Inhibition at 10 μM [13]: −10.7%
% Inhibition at 10 μM [14]: −6.0%
% Inhibition at 10 μM [15]: −2.2%
% Inhibition at 10 μM [16]: −3.3%
% Inhibition at 10 μM [17]: −7.1%
% Inhibition at 10 μM [18]: 7.8%
% Inhibition at 10 μM [19]: 2.9%
% Inhibition at 10 μM [20]: −8.5%
% Inhibition at 10 μM [21]: −1.0%
% Inhibition at 10 μM [22]: 5.0%
% Inhibition at 10 μM [23]: −2.5%
% Inhibition at 10 μM [24]: −3.4%
% Inhibition at 10 μM [25]: 3.7%
% Inhibition at 10 μM [26]: −11.1%
% Inhibition at 10 μM [27]: −2.2%
% Inhibition at 10 μM [28]: −7.4%
% Inhibition at 10 μM [29]: −4.0%
% Inhibition at 10 μM [30]: 2.2%
% Inhibition at 10 μM [31]: 25.2%
% Inhibition at 10 μM [32]: 1.1%
% Inhibition at 10 μM [33]: −12.3%
% Inhibition at 10 μM [34]: 11.0%
% Inhibition at 10 μM [35]: 0.6%
% Inhibition at 10 μM [36]: 0.6%
% Inhibition at 10 μM [37]: −4.5%
% Inhibition at 10 μM [38]: −6.5%
% Inhibition at 10 μM [39]: −4.5%
% Inhibition at 10 μM [40]: −7.9%
% Inhibition at 10 μM [41]: −2.3%

CC(C)(C)Cc1[nH]nc2c1[C@](C)(c1ccccc1)C1=C(CC(C)(C)CC1=O)N2 [BRD3731]
% Inhibition 10 μM ([1]; 10 μM): 2.9%
% Inhibition 10 μM ([2]; 10 μM): −3.5%
% Inhibition 10 μM ([3]; 10 μM): 6.4%
% Inhibition 10 μM ([4]; 10 μM): −3.0%
% Inhibition 10 μM ([5]; 10 μM): 5.3%
% Inhibition 10 μM ([6]; 10 μM): 2.5%
% Inhibition 10 μM ([7]; 10 μM): −1.3%
% Inhibition 10 μM ([8]; 10 μM): −0.2%
% Inhibition 10 μM ([9]; 10 μM): 27.8%
% Inhibition 10 μM ([10]; 10 μM): −2.1%
% Inhibition 10 μM ([11]; 10 μM): 4.1%
% Inhibition 10 μM ([12]; 10 μM): 1.9%
% Inhibition 10 μM ([13]; 10 μM): −1.8%
% Inhibition 10 μM ([14]; 10 μM): −3.4%
% Inhibition 10 μM ([15]; 10 μM): 9.5%
% Inhibition 10 μM ([16]; 10 μM): 33.7%
% Inhibition 10 μM ([17]; 10 μM): 12.4%
% Inhibition 10 μM ([18]; 10 μM): 8.9%
% Inhibition 10 μM ([19]; 10 μM): −16.4%
% Inhibition 10 μM ([20]; 10 μM): −0.8%
% Inhibition 10 μM ([21]; 10 μM): −1.9%
% Inhibition 10 μM ([22]; 10 μM): 1.7%
% Inhibition 10 μM ([23]; 10 μM): 13.9%
% Inhibition 10 μM ([24]; 10 μM): 1.2%
% Inhibition 10 μM ([25]; 10 μM): 3.8%
% Inhibition 10 μM ([26]; 10 μM): 3.8%
% Inhibition 10 μM ([27]; 10 μM): 4.6%
% Inhibition 10 μM ([28]; 10 μM): 0.1%
% Inhibition 10 μM ([29]; 10 μM): −6.7%
% Inhibition 10 μM ([30]; 10 μM): 2.9%
% Inhibition 10 μM ([31]; 10 μM): 3.0%
% Inhibition 10 μM ([32]; 10 μM): 3.0%
% Inhibition 10 μM ([33]; 10 μM): −0.7%
% Inhibition 10 μM ([34]; 10 μM): 24.2%
% Inhibition 10 μM ([35]; 10 μM): 0.4%
% Inhibition 10 μM ([36]; 10 μM): −11.0%
% Inhibition 10 μM ([37]; 10 μM): −2.1%
% Inhibition 10 μM ([38]; 10 μM): 5.8%
% Inhibition 10 μM ([39]; 10 μM): −1.4%
% Inhibition 10 μM ([40]; 10 μM): 4.5%
% Inhibition 10 μM ([41]; 10 μM): 2.1%
